From US11945812B2, “Annulated 2-amino-3-cyano thiophenes and derivatives for the treatment of cancer” (Boehringer Ingelheim International GmbH, priority 2020, dated 2024) come the findings set out here.

pIC50: −log10 of the molar value.

As a reminder, the pIC50 is the IC50 on a negative log10 scale, so that one unit is a factor of ten.

Sequence of Ba/F3 cells bearing a KRAS G12C mutation (P01116 whole entry G12C): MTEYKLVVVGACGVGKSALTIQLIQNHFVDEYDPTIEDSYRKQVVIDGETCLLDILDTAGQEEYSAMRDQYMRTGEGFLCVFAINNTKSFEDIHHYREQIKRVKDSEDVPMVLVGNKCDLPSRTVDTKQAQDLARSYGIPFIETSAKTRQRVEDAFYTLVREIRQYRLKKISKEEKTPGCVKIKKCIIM

One series has as its target Ba/F3 cells bearing a KRAS G12C mutation (Homo sapiens, UniProt P01116, G12C, cells depend on it). Kind of series: Ba/F3 cell model proliferation assay (AlamarBlue, 72 h). Conditions: Ba/F3 KRAS G12C cells, 72 h, 10% FCS, uncorrected; read-out: IC50 Ba/F3 KRASG12C. The format is cell-based.
Regarding `C=CC(=O)N1[C@H](C)CN(c2cc(O[C@@H](C)[C@@H]3CCCN3C)nc(-c3cc([C@@]4(C)CCCc5sc(N)c(C#N)c54)no3)n2)C[C@@H]1C` [Ic-5], the GI50 came out at 6.7 nM.
The same measure, in the same setting: in the case of `C=CC(=O)N1CCC(Oc2cc(N3CCN(C)C[C@@H]3C)nc(-c3cc(C4(C)CCCc5sc(N)c(C#N)c54)no3)n2)CC1` (some centres unmarked) [Ic-7] it was 35.3 nM; in that of `COC/C=C/C(=O)N1CCN(c2cc(O[C@@H](C)[C@@H]3CCCN3C)nc(-c3cc(C4(C)CCCc5sc(N)c(C#N)c54)no3)n2)CC1` (some centres unmarked) [Ic-9], 87 nM.
Turning to `C=CC(=O)N1[C@H](C)CN(c2cc(O[C@@H](C)[C@@H]3CCCN3C)nc(-c3cc([C@@]4(C)CCCc5sc(N)c(C#N)c54)sn3)n2)C[C@@H]1C` [Id-2], the GI50 turned out to be 2 nM.
On the same count and under the same terms, in the case of `C=CC(=O)N1[C@@H](C)CN(c2cc(O[C@@H](C)[C@@H]3CCCN3C)nc(-c3cc([C@@]4(C)CCCc5sc(N)c(C#N)c54)sn3)n2)C[C@@H]1C` [Id-4] it was 1.3 nM.

Still in this series, the particulars now being: corrected by plasma protein binding in 10% FCS (fraction unbound); read-out: IC50 Ba/F3 KRASG12C (corrected).
For the compound `C=CC(=O)N1[C@H](C)CN(c2cc(O[C@@H](C)[C@@H]3CCCN3C)nc(-c3cc([C@@]4(C)CCCc5sc(N)c(C#N)c54)no3)n2)C[C@@H]1C` [Ic-5], the GI50 came out at 0.99 nM.
On the same count and under the same terms, in the case of `C=CC(=O)N1CCC(Oc2cc(N3CCN(C)C[C@@H]3C)nc(-c3cc(C4(C)CCCc5sc(N)c(C#N)c54)no3)n2)CC1` (some centres unmarked) [Ic-7] it was 8.9 nM; in that of `COC/C=C/C(=O)N1CCN(c2cc(O[C@@H](C)[C@@H]3CCCN3C)nc(-c3cc(C4(C)CCCc5sc(N)c(C#N)c54)no3)n2)CC1` (some centres unmarked) [Ic-9], 22.5 nM; in that of `C=CC(=O)N1[C@H](C)CN(c2cc(O[C@@H](C)[C@@H]3CCCN3C)nc(-c3cc([C@@]4(C)CCCc5sc(N)c(C#N)c54)sn3)n2)C[C@@H]1C` [Id-2], 0.87 nM.
Still for that read-out and setting: in the case of `C=CC(=O)N1[C@@H](C)CN(c2cc(O[C@@H](C)[C@@H]3CCCN3C)nc(-c3cc([C@@]4(C)CCCc5sc(N)c(C#N)c54)sn3)n2)C[C@@H]1C` [Id-4] it was 0.48 nM.

Tested on in a further series: not listed separately
Kind of series: Plasma protein binding (equilibrium dialysis), human plasma. To be noted: read-out: PPB human fu. The format is in vitro ADME. In general terms: Equilibrium dialysis compares concentrations on both sides of a semipermeable membrane.
Turning to `C=CC(=O)N1[C@H](C)CN(c2cc(O[C@@H](C)[C@@H]3CCCN3C)nc(-c3cc([C@@]4(C)CCCc5sc(N)c(C#N)c54)no3)n2)C[C@@H]1C` [Ic-5], the fraction unbound came out at 0.02.
As to `C=CC(=O)N1CCC(Oc2cc(N3CCN(C)C[C@@H]3C)nc(-c3cc(C4(C)CCCc5sc(N)c(C#N)c54)no3)n2)CC1` (some centres unmarked) [Ic-7], the fraction unbound was determined as 0.02.
Turning to `COC/C=C/C(=O)N1CCN(c2cc(O[C@@H](C)[C@@H]3CCCN3C)nc(-c3cc(C4(C)CCCc5sc(N)c(C#N)c54)no3)n2)CC1` (some centres unmarked) [Ic-9], the fraction unbound worked out at 0.043.
Still for that read-out and setting: in the case of `C=CC(=O)N1[C@H](C)CN(c2cc(O[C@@H](C)[C@@H]3CCCN3C)nc(-c3cc([C@@]4(C)CCCc5sc(N)c(C#N)c54)sn3)n2)C[C@@H]1C` [Id-2] it was 0.009; in that of `C=CC(=O)N1[C@@H](C)CN(c2cc(O[C@@H](C)[C@@H]3CCCN3C)nc(-c3cc([C@@]4(C)CCCc5sc(N)c(C#N)c54)sn3)n2)C[C@@H]1C` [Id-4], 0.014.

For the next series, the system named is SW837 cells. As to the kind of experiment: SW837 CTG proliferation assay (CRC). The format is cell-based. Conditions: Homo sapiens; SW837 CTG proliferation; read-out: IC50 SW837. The method, then: SW837 CTG Proliferation Assay (CRC)
SW837 cells (ATCC #CCL-235) were grown in cell culture flasks (175 cm^2) using L-15 10% FCS, 1% L-Glu, 1×NEAA and 1×Na-Pyrovat. Cultures were incubated at 37° C. and 0% CO2 in a humidified atmosphere, with medium change or subcultivation 2-3 times a week. Materials used for the assay were CulturPlate-384, White Opaque 384-well Microplate, Sterile and Tissue Culture Treated (Perkin Elmer #6007680), Leibovitz L15 Medium and FBS # SH30071.03 (HyClone).
(§1) The proliferation assays started (day1) with seeding cells in flat bottom 384 well microtiter plates in 90 μL L-15 10% FCS, 1% L-Glu, 1×NEAA and 1× Na-Pyrovat at a density of 500 cells/well. Any other luminescence compatible plate format is possible. On day 2, 10 μL dilutions of the test compounds covering a concentration range between app. 0, 1 and 10.000 nM were added to the cells. Cells were incubated for 5 days in a humidified, CO2 controlled (no CO2) incubator at 37° C. On day 7 100 μL of Cell Titer Glow reagent (Cell titer Glo Luminescent Cat. No. G7571, Promega) were added to each well and incubated for additional 10 min at room temperature (with agitation). Luminescence was measured on a Wallac Victor using standard luminescence read out. IC50 values were calculated using standard Levenburg Marquard algorithms (GraphPad Prism).
As for `C=CC(=O)N1[C@H](C)CN(c2cc(O[C@@H](C)[C@@H]3CCCN3C)nc(-c3cc([C@@]4(C)CCCc5sc(N)c(C#N)c54)no3)n2)C[C@@H]1C` [Ic-5], the pIC50 was 8.15.
Still for that read-out and setting: in the case of `C=CC(=O)N1CCC(Oc2cc(N3CCN(C)C[C@@H]3C)nc(-c3cc(C4(C)CCCc5sc(N)c(C#N)c54)no3)n2)CC1` (some centres unmarked) [Ic-7] it was 7.35.
In the case of `COC/C=C/C(=O)N1CCN(c2cc(O[C@@H](C)[C@@H]3CCCN3C)nc(-c3cc(C4(C)CCCc5sc(N)c(C#N)c54)no3)n2)CC1` (some centres unmarked) [Ic-9], the pIC50 is 6.91.
Still for that read-out and setting: in the case of `C=CC(=O)N1[C@H](C)CN(c2cc(O[C@@H](C)[C@@H]3CCCN3C)nc(-c3cc([C@@]4(C)CCCc5sc(N)c(C#N)c54)sn3)n2)C[C@@H]1C` [Id-2] it was 8.96; in that of `C=CC(=O)N1[C@@H](C)CN(c2cc(O[C@@H](C)[C@@H]3CCCN3C)nc(-c3cc([C@@]4(C)CCCc5sc(N)c(C#N)c54)sn3)n2)C[C@@H]1C` [Id-4], 9.17.

A further series deals with MiaPaCa-2 cells. Kind of series: MiaPaCa-2 CTG proliferation assay (pancreatic cancer). Conditions: Homo sapiens, MIA PaCa-2, 120 h; MiaPaCa-2 CTG proliferation, 5 days; read-out: IC50 MiaPACA2. The format is cell-based. The method, then:
MiaPaCa-2 CTG Proliferation Assay (Pancreatic Cancer)
MiaPaCa-2 cells (ATCC® CRM-CRL-1420™) were grown in cell culture flasks (175 cm^2) using DMEM medium supplemented with 10% fetal bovine serum. […] Materials used for the assay were CulturPlate-384, White Opaque 384-well microplate, Sterile and Tissue Culture Treated (Perkin Elmer #6007680), DMEM medium and FBS # SH30071.03 (HyClone).
as §1, with “μL DMEM medium supplemented with” for “μL L-15”, “10% FBS” for “10% FCS, 1% L-Glu, 1×NEAA and 1× Na-Pyrovat”, “humidified, incubator with 5%” for “humidified,”, “CO2” for “CO2 controlled (no CO2) incubator”, “100 μl” for “100 μL”
`C=CC(=O)N1[C@H](C)CN(c2cc(O[C@@H](C)[C@@H]3CCCN3C)nc(-c3cc([C@@]4(C)CCCc5sc(N)c(C#N)c54)no3)n2)C[C@@H]1C` [Ic-5]: the pIC50 was 7.32.
On the same count and under the same terms, in the case of `C=CC(=O)N1CCC(Oc2cc(N3CCN(C)C[C@@H]3C)nc(-c3cc(C4(C)CCCc5sc(N)c(C#N)c54)no3)n2)CC1` (some centres unmarked) [Ic-7] it was 6.48.
Regarding `COC/C=C/C(=O)N1CCN(c2cc(O[C@@H](C)[C@@H]3CCCN3C)nc(-c3cc(C4(C)CCCc5sc(N)c(C#N)c54)no3)n2)CC1` (some centres unmarked) [Ic-9], the pIC50 was 6.48.
Still for that read-out and setting: in the case of `C=CC(=O)N1[C@H](C)CN(c2cc(O[C@@H](C)[C@@H]3CCCN3C)nc(-c3cc([C@@]4(C)CCCc5sc(N)c(C#N)c54)sn3)n2)C[C@@H]1C` [Id-2] it was 7.67; in that of `C=CC(=O)N1[C@@H](C)CN(c2cc(O[C@@H](C)[C@@H]3CCCN3C)nc(-c3cc([C@@]4(C)CCCc5sc(N)c(C#N)c54)sn3)n2)C[C@@H]1C` [Id-4], 7.82.

The test system of the next series is NCI-H358 cells. Kind of series: NCI-H358 CTG proliferation assay (120 h) (NSCLC). The format is cell-based. To be noted: Homo sapiens, read-out: IC50 NCl-H358. The method, then: NCI-H358 CTG Proliferation Assay (120 h) (NSCLC)
NCI-H358 cells (ATCC No. CRL-5807) were dispensed into white bottom opaque 96 well plates (Perkin Elmer cat no. 5680) at a density of 2000 cells per well in 100 μL RPMI-1640 ATCC-Formulation (Gibco # A10491)+10% FCS. Cells were incubated overnight at 37° C. in a humidified tissue culture incubator at 5% CO2. Compounds (10 mM stock in DMSO) were added at logarithmic dose series using the HP Digital Dispenser D300 (Tecan), normalizing for added DMSO. For the TO time point measurement, untreated cells were analyzed at the time of compound addition. Plates were incubated for 120 hours, and cell viability was measured using CellTiter-Glo luminescent cell viability reagent (Promega product code G7570). Viability (stated as percent of control) is defined as relative luminescence units RLU of each well divided by the RLU of cells in DMSO controls. IC50 values were determined from viability measurements by non-linear regression using a four parameter model.
Take `C=CC(=O)N1[C@H](C)CN(c2cc(O[C@@H](C)[C@@H]3CCCN3C)nc(-c3cc([C@@]4(C)CCCc5sc(N)c(C#N)c54)no3)n2)C[C@@H]1C` [Ic-5]: the negative logarithm of the IC50 (pIC50) is 7.81.
Still for that read-out and setting: in the case of `C=CC(=O)N1CCC(Oc2cc(N3CCN(C)C[C@@H]3C)nc(-c3cc(C4(C)CCCc5sc(N)c(C#N)c54)no3)n2)CC1` (some centres unmarked) [Ic-7] it was 7.11.
On the same count and under the same terms, in the case of `COC/C=C/C(=O)N1CCN(c2cc(O[C@@H](C)[C@@H]3CCCN3C)nc(-c3cc(C4(C)CCCc5sc(N)c(C#N)c54)no3)n2)CC1` (some centres unmarked) [Ic-9] it was 6.77; in that of `C=CC(=O)N1[C@H](C)CN(c2cc(O[C@@H](C)[C@@H]3CCCN3C)nc(-c3cc([C@@]4(C)CCCc5sc(N)c(C#N)c54)sn3)n2)C[C@@H]1C` [Id-2], 8.59.
On the same count and under the same terms, in the case of `C=CC(=O)N1[C@@H](C)CN(c2cc(O[C@@H](C)[C@@H]3CCCN3C)nc(-c3cc([C@@]4(C)CCCc5sc(N)c(C#N)c54)sn3)n2)C[C@@H]1C` [Id-4] it was 8.96.

A further series concerns ERK phosphorylation in NCI-H358_Cas9_SOS2. As to the kind of experiment: ERK phosphorylation assay 2 (AlphaLISA SureFire Ultra p-ERK1/2), SOS2 knock-out. The series is classed as cell-based. To be noted: Homo sapiens, NCI-H358; assay 2 (marked with *); read-out: IC50 H358 pERK. The source says:
ERK Phosphorylation Assay
Materials Used for the Assay;
Regarding `C=CC(=O)N1[C@H](C)CN(c2cc(O[C@@H](C)[C@@H]3CCCN3C)nc(-c3cc([C@@]4(C)CCCc5sc(N)c(C#N)c54)no3)n2)C[C@@H]1C` [Ic-5], the pIC50 is 7.88.
Still for that read-out and setting: in the case of `C=CC(=O)N1CCC(Oc2cc(N3CCN(C)C[C@@H]3C)nc(-c3cc(C4(C)CCCc5sc(N)c(C#N)c54)no3)n2)CC1` (some centres unmarked) [Ic-7] it was 7.25; in that of `COC/C=C/C(=O)N1CCN(c2cc(O[C@@H](C)[C@@H]3CCCN3C)nc(-c3cc(C4(C)CCCc5sc(N)c(C#N)c54)no3)n2)CC1` (some centres unmarked) [Ic-9], 7.34; in that of `C=CC(=O)N1[C@H](C)CN(c2cc(O[C@@H](C)[C@@H]3CCCN3C)nc(-c3cc([C@@]4(C)CCCc5sc(N)c(C#N)c54)sn3)n2)C[C@@H]1C` [Id-2], 8.27.
Same read-out and setting: in the case of `C=CC(=O)N1[C@@H](C)CN(c2cc(O[C@@H](C)[C@@H]3CCCN3C)nc(-c3cc([C@@]4(C)CCCc5sc(N)c(C#N)c54)sn3)n2)C[C@@H]1C` [Id-4] it was 8.66.
